Reference: US20100104552A1, “ANTIBIOTIC SYNERGISM” (priority 2008, published 2010)

Tests used:
Assay type in all cases: cell-based
bacterial cells = experiment: Traditional incorporation studies
bacterial membrane [1] = experiment: Trans-membrane potential of exposed bacteria; conditions: bacteria exposed to the defensin
[2] = test system: vancomycin-resistant Staphylococcus aureus (VRSA); experiment: Cross-resistance with vancomycin resistance
bacterial membrane [3] = experiment: K+-efflux of exposed bacteria; conditions: bacteria exposed to the defensin

Substance | incorporation of cell wall precursors (bacterial cells) | trans-membrane potential (bacterial membrane [1]) | cross-resistance [2] | K+-efflux (bacterial membrane [3])
Plectasin | severely affected | remained intact | No cross-resistance | No K^+-efflux could be detected
GFGCNGPWNEDDLRCHNHCKSIKGYKGGYCAKGGFVCKCY [Defensin2114] | severely affected | remained intact | No cross-resistance | No K^+-efflux could be detected
